According to patent US20250380700A1, “HERBICIDAL COMBINATIONS AND A METHOD FOR CONTROLLING UNDESIRED VEGETATION” (UPL Mauritius Limited, priority 2022, published 2025):

Test system: weedy Glycine max
Assay: Post-emergence herbicidal activity trial on weedy Glycine max (observed efficacy vs Colby expected efficacy)
Format: in vivo
Method: Methodology: Trials were conducted to evaluate the efficacy of the combination comprising L-glufosinate ammonium and additional herbicides on weedy Glycine max.
The soil used was sandy clay loam-sand: 68.0%; silt: 8.0%; clay: 24.0%.
All treatments were in 3 replications per treatment with a spray volume of about 150 L/ha.
The expected efficacy of a combination of L-glufosinate ammonium and the other herbicides was calculated using the well-established Colby method. Any difference between the observed and “expected” efficacy could be attributed to synergy between the two compounds.
In the Colby method, the expected (or predicted) response of a combination of herbicides is calculated by taking the product of the observed response for each individual component of the combination when applied alone, divided by 100, and subtracting this value from the sum of the observed response for each component when applied alone. An unexpected enhancement in efficacy of the combination is then determined by comparing the observed response of the combination to the expected (or predicted) response as calculated from the observed response of each individual component alone. If the observed response of the combination is greater than the expected (or predicted) response, or stated conversely, if the difference between the observed and expected response is greater than zero, then the combination is said to be synergistic or unexpectedly effective (Colby, S. R., Weeds, 1967(15), p. 20-22). The Colby method requires only a single dose of each herbicide applied alone and the mixture of both doses. The formula used to calculate the expected efficacy (EE) which was compared with the observed efficacy (OE) to determine the efficacy of the present disclosure is explained hereinbelow:
The expected efficacy for a combination of two active ingredients is as follows:
The expected efficacy for a combination of three active ingredients is as follows:
wherein, • A=Observed efficacy of active ingredient A at the same concentration as used in the mixture. • B=Observed efficacy of the active ingredient B at the same concentration as used in the mixture. • C=Observed efficacy of the active ingredient C at the same concentration as used in the mixture.

O=C(O)COc1ccc(Cl)cc1Cl [2,4-D]
Observed efficacy (%) of 2,4-D (228 g a.i./ha) (Example 3, Table 4, 3 DAA): 50% | Observed efficacy (%) of 2,4-D (228 g a.i./ha) (Example 3, Table 4, 7 DAA): 60%

CP(=O)(O)CC[C@H](N)C(=O)O.N [L-glufosinate ammonium]
Observed efficacy (%) of L-glufosinate ammonium (150 g a.i./ha) (Example 1, Table 2, 3 DAA, post-emergence): 65% | Observed efficacy (%) of L-glufosinate ammonium (150 g a.i./ha) (Example 1, Table 2, 7 DAA, post-emergence): 65% | Observed efficacy (%) of L-glufosinate ammonium (150 g a.i./ha) (Example 2, Table 3, 3 DAA): 50% | Observed efficacy (%) of L-glufosinate ammonium (150 g a.i./ha) (Example 2, Table 3, 7 DAA): 65% | Observed efficacy (%) of L-glufosinate ammonium (150 g a.i./ha) (Example 3, Table 4, 3 DAA): 50% | Observed efficacy (%) of L-glufosinate ammonium (150 g a.i./ha) (Example 3, Table 4, 7 DAA): 75%

O=C(O)COc1nc(Cl)c(Cl)cc1Cl [Triclopyr]
Observed efficacy (%) of Triclopyr (228 g a.i./ha) (Example 2, Table 3, 3 DAA): 75% | Observed efficacy (%) of Triclopyr (228 g a.i./ha) (Example 2, Table 3, 7 DAA): 68%

CC(C)N(C)S(=O)(=O)NC(=O)c1cc(-n2c(=O)cc(C(F)(F)F)n(C)c2=O)c(F)cc1Cl [Saflufenacil]
Observed efficacy (%) of Saflufenacil (30 g a.i./ha) (Example 1, Table 2, 3 DAA): 50% | Observed efficacy (%) of Saflufenacil (30 g a.i./ha) (Example 1, Table 2, 7 DAA): 70% | Observed efficacy (%) of Saflufenacil (30 g a.i./ha) (Example 2, Table 3, 3 DAA): 65% | Observed efficacy (%) of Saflufenacil (30 g a.i./ha) (Example 2, Table 3, 7 DAA): 70% | Observed efficacy (%) of Saflufenacil (30 g a.i./ha) (Example 3, Table 4, 3 DAA): 65% | Observed efficacy (%) of Saflufenacil (30 g a.i./ha) (Example 3, Table 4, 7 DAA): 75%
